Data taken from patent US20240156800A1, “EP300 DEGRADER AND USES THEREOF IN NEUROBLASTOMA” (DANA-FARBER CANCER INSTITUTE, INC., priority 2021, published 2024).

How the values were obtained:
[1] = tested on: super-enhancer regulated and CRC genes; experiment: ERCC spike-in RNA-seq of xenograft tumor cells; type: in vivo, human
Source text: For in vivo analyses, tumors were removed from animals treated with either vehicle […] to filtering for single cells through a […] filter. Single cell suspensions were then solubilized in TRIzol™ (Ambion) as described above, with processing, including ERCC RNA spike in controls, treatment with RNAse-free DNAse I, and spin purification. Following preparation, there was sufficient material to proceed with RNAseq analysis for four vehicle control and three JQAD1 treated tumor specimen. Purified RNA samples were subjected to library construction with a low input RNA protocol followed by poly-adenylation preparation and sequencing using the Illumina NextSeq® 500 (paired end, 75 bp reads). Raw reads for RNA-seq of in vivo models were aligned first using hisat2 v2.1 in paired-end mode against the mm9 revision of the mouse genome to filter out contaminating mouse reads. Remaining reads were aligned to a reference genome containing the hg19 revision of the human reference and the sequences of ERCC spike-in probes. Expression was quantified using sorted BAMs, a gene reference built using ERCC sizes and RefSeq genes downloaded Jul. 15, 2017, and htseq-count with parameters -I gene_id -stranded=reverse -f bam -m intersection-strict. Read counts were converted to transcripts per million (TPM) and used for cell number-normalization. […]

[2] = target: His-tagged CRBN (Homo sapiens, UniProt Q96SW2); experiment: AlphaLISA assay with biotinylated pomalidomide and His-tagged CRBN; type: binding; conditions: competition with biotinylated pomalidomide
Sequence of His-tagged CRBN (Q96SW2 whole entry): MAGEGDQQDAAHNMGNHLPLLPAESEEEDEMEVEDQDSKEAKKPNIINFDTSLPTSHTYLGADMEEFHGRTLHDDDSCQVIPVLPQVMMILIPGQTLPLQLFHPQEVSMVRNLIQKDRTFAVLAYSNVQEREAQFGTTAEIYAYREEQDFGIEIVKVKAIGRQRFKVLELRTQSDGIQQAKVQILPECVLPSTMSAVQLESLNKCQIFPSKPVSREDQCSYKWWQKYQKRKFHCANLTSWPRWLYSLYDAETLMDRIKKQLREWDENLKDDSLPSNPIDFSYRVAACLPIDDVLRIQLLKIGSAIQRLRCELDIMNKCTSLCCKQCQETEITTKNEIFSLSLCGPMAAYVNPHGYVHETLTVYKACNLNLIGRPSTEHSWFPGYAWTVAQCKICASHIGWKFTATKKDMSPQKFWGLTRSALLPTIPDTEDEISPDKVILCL
Sequence of His-tagged CRBN (Q16531 whole entry partner): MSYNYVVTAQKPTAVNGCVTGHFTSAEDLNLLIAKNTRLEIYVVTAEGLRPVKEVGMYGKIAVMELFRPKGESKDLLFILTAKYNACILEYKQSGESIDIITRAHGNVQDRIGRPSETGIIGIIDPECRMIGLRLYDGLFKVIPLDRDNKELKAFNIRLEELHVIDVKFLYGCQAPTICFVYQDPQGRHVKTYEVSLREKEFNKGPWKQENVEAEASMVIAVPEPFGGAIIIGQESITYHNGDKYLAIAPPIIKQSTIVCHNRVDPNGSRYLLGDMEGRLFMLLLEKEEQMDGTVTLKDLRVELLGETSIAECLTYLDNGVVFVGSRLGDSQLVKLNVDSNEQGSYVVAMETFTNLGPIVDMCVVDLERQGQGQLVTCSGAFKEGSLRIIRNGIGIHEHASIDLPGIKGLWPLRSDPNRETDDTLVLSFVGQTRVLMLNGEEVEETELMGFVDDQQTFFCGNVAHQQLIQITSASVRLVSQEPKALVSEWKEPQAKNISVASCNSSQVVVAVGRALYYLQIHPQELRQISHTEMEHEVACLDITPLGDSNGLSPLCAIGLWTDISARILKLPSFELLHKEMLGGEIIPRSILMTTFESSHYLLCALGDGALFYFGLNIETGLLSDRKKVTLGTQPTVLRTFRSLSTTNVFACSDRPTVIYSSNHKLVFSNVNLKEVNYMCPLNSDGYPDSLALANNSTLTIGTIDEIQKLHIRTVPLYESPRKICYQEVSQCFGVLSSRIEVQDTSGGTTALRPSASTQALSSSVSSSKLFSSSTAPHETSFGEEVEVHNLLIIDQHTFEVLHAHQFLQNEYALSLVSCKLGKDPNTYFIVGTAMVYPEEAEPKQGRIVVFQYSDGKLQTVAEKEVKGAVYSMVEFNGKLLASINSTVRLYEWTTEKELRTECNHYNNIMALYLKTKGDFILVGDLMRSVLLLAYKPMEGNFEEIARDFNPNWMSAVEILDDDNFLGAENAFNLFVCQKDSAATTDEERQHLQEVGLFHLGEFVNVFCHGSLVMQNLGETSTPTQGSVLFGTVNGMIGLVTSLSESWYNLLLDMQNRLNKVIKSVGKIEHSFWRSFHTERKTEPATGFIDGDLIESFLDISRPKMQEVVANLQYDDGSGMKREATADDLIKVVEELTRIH
Experimental: To determine whether JQAD1 interacts with the E3 ligase receptor CRBN, the AlphaLISA® platform was used to perform AlphaLISA® fluorescent assays using biotinylated pomalidomide bound to beads and His-tagged CRBN (Yasgar et al. Methods Mol. Biol. 1439:77-98 (2016)). […] Next, biotinylated JQAD1 (Biotin-JQAD1, Scheme 2) was synthesized and incubated with Kelly cell lysates, followed by streptavidin-based purification. […] PROTAC®s may acquire preferential specificity for one of two possible target enzymes due to restricted three-dimensional interactions, as noted in Burslem and Crews, Cell 181:102-14 (2020).
Assays were performed with minimal modifications from the manufacturer's protocol (PerkinElmer®, USA). Briefly, a 2× solution of components with final concentrations of CRBN-DDB1 at 50 nM, Ni-coated Acceptor Beads at 20 μg/ml, and 15 nM biotinylated-pomalidomide were added in […] to 384-well plates (AlphaPlate-384, PerkinElmer®, USA). 100 nL of compound in DMSO from stock plates were added by pin transfer using a Janus Workstation (PerkinElmer®, USA). Streptavidin-coated donor beads (20 μg/ml final) were added to the solution, followed by incubation at room temperature for 1 hour, and reading on an Envision 2104 (PerkinElmer®, USA), by the manufacturer's protocol.

[3] = tested on: 557 cancer cell lines; experiment: PRISM pooled barcoded 5-day cell viability screen; type: cell-based, human
Experimental: PRISM barcoded pooled screening was performed using JQAD1 in 578 barcoded cell lines as described in Corsello et al. Nat. Med. 23:405-8 (2017) and Corsello et al. Nat Cancer 1:235-48 (2020). Some cell lines included in the screen were genetically engineered to express exogenous genes, and these cell lines were removed to yield 557 cell lines. Briefly, cells in pools of 20-25 were thawed and plated into 384-well plates (1250 cells/well for adherent cell pools, 2000 cells/well for suspension or mixed suspension/adherent cell pools) containing compound (top concentration: 10 μM, 8-point, threefold dilution). All conditions were tested in triplicate. Cells were lysed after 5 days of treatment and mRNA-based Luminex® detection of barcode abundance from lysates was carried out as described in Corsello et al. Cancer 1:235-48 (2020). Luminex median fluorescence intensity (MFI) data was input to a standardized R pipeline to generate viability estimates relative to vehicle treatment for each cell line and treatment condition, and to fit dose-response curves from viability data.

C[C@H](N(Cc1ccc(F)cc1)C(=O)CN1C(=O)O[C@@]2(CCc3cc(NC(=O)CCCCCCCCCCCNc4ccc5c(c4)C(=O)N(C4CCC(=O)NC4=O)C5=O)ccc32)C1=O)C(F)(F)F (stereo partly drawn) [JQAD1, 12-((2-(2,6-dioxopiperidin-3-yl)-1,3-dioxoisoindolin-5-yl)amino)-N-((R)-3′-(2-((4-fluorobenzyl)((S)-1,1,1-trifluoropropan-2-yl)amino)-2-oxoethyl)-2′,4′-dioxo-2,3-dihydrospiro[indene-1,5′-oxazolidin]-5-yl)dodecanamide]
expression of CRC genes and MYCN in tumors ([1]; 40 mg/Kg daily for 14 days): among the most downregulated genes
RNA expression of super-enhancer versus typical-enhancer regulated genes in tumor cells ([1]; 40 mg/Kg once daily, p<0.0001): preferential downregulation of genes regulated by super-enhancers compared with those regulated by typical enhancers
interaction with CRBN [2]: efficiently interacted with CRBN
antineoplastic activity ([3]; 5 days, 557 cancer cell lines): antineoplastic activity across multiple tumor lineages
area under the curve (AUC) of the dose-response in growth-inhibited cell lines ([3]; 5 days, top concentration 10 μM, some example cell lines within the majority of tumor lineages): < 0.85
relation of CRBN expression to AUC of the dose-response ([3]; CRBN expression from CCLE): higher expression levels of CRBN were correlated with higher JQAD1-mediated antineoplastic activity
